Data taken from US20260028365A1 (BIOGEN MA INC., priority 2022, published 2026).
pIC50: −log10 of the molar value. Like-named read-outs stand apart in the source and are kept apart here.

Tests used:
Tyk2 = Tyk2 (Homo sapiens (Human), UniProt P29597); assay: pSTAT4 Cell Assay (MSD, NK92 cells); assay type: cell-based
JH2 domain of human Tyk2 = JH2 domain of human Tyk2 (Homo sapiens (Human), UniProt P29597); assay: JH2 Biochemical Assay (TR-FRET probe displacement); assay type: binding
[1] = JH2 domain of human Tyk2, TR-FRET probe displacement
[2] = TR-FRET probe displacement, JH2 domain
[3] = TR-FRET probe displacement, JH2 domain of human Tyk2

Sequence of Tyk2 (P29597 whole entry, the tested form may be a part): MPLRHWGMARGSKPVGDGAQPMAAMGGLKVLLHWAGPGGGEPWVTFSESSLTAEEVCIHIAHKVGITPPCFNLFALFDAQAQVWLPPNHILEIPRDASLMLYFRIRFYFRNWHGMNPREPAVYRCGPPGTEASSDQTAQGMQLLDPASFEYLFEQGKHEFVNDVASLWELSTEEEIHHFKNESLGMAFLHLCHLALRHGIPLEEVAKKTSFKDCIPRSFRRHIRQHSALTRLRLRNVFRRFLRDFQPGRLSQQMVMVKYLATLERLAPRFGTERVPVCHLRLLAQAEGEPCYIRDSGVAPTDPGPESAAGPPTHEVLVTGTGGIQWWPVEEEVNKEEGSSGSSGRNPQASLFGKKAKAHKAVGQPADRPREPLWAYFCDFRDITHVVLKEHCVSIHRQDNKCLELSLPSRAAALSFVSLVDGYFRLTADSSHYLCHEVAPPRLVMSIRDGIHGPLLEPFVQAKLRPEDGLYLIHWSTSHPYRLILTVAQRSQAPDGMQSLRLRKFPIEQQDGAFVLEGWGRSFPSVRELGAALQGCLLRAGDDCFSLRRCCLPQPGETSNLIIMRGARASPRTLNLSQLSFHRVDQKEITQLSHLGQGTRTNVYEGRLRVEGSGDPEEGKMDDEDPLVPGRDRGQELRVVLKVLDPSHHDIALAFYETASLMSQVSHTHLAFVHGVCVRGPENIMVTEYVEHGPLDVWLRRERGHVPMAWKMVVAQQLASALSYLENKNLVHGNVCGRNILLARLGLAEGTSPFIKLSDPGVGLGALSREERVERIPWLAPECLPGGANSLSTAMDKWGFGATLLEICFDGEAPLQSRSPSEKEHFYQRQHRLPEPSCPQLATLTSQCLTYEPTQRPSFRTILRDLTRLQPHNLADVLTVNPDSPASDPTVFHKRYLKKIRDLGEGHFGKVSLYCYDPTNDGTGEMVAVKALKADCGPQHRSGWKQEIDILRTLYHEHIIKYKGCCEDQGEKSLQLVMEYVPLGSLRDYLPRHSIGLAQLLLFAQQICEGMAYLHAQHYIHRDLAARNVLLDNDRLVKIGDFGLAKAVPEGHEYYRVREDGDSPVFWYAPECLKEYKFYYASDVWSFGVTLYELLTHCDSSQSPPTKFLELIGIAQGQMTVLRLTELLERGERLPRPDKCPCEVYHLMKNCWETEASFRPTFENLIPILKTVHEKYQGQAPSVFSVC
Sequence of JH2 domain of human Tyk2 (P29597 575-876): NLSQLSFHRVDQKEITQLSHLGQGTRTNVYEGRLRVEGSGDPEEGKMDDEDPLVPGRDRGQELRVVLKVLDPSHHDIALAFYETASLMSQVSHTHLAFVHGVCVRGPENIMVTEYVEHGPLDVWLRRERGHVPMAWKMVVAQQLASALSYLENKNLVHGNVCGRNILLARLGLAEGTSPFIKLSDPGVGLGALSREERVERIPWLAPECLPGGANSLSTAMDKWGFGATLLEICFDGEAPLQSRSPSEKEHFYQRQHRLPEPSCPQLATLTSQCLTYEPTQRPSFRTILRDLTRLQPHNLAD

| SMILES | pIC50 (Tyk2; MSD) | pIC50 (JH2 domain of human Tyk2; [1]) | pIC50 (Tyk2) | pIC50 (JH2 domain of human Tyk2; [2]) | pIC50 (JH2 domain of human Tyk2; [3]) |
| --- | --- | --- | --- | --- | --- |
| CC(=O)Nc1cc(Nc2cc(C)nc(C(C)(F)F)n2)c(-c2cnn3c2OCCC3)cn1 [Example 535, N-(4-((2-(1,1-difluoroethyl)-6-methylpyrimidin-4-yl)amino)-5-(6,7-dihydrO5H-pyrazolo[5,1-b][1,3]oxazin-3-yl)pyridin-2-yl)acetamide] | ≤ 6.00 | 7.00 to 8.00 |  |  |  |
| CC(=O)Nc1cc(Nc2cc(C)nc(C(C)(F)F)n2)c(-n2ccc(C)n2)cn1 [Example 597, N-(4-((2-(1,1-difluoroethyl)-6-methylpyrimidin-4-yl)amino)-5-(3-methyl-1H-pyrazol-1-yl)pyridin-2-yl)acetamide] | 7.00 to 8.00 | ≥ 8.00 |  |  |  |
| CC(=O)Nc1cc(Nc2cc(C)nc(C(C)(F)F)n2)c(OC[C@@H]2CCN(C3CC3)C2)cn1 [Example 494, (R)-N-(5-((1-cyclopropylpyrrolidin-3-yl)methoxy)-4-((2-(1,1-difluoroethyl)-6-methylpyrimidin-4-yl)amino)pyridin-2-yl)acetamide] | 7.00 to 8.00 | ≥ 8.00 |  |  |  |
| COc1cnc(-c2cnc(NC(C)=O)cc2Nc2cc(C)nc(C(C)(F)F)n2)cn1 [Example 815, N-(4-((2-(1,1-difluoroethyl)-6-methylpyrimidin-4-yl)amino)-5-(5-methoxypyrazin-2-yl)pyridin-2-yl)acetamide] |  |  | ≤ 6.00 | ≥ 8.00 |  |
| CCn1ccc(-c2cnc(NC(C)=O)cc2Nc2ccnc(C(C)(F)F)n2)n1 [Example 706, N-(4-((2-(1,1-difluoroethyl)pyrimidin-4-yl)amino)-5-(1-ethyl-1H-pyrazol-3-yl)pyridin-2-yl)acetamide] | ≥ 8.00 | ≥ 8.00 |  |  |  |
| COc1cnc(NC(C)=O)cc1Nc1cc(-c2cnn(CCN(C)C)c2)nc(C(C)(F)F)n1 [Example 380, N-(4-((2-(1,1-difluoroethyl)-6-(1-(2-(dimethylamino)ethyl)-1H-pyrazol-4-yl)pyrimidin-4-yl)amino)-5-methoxypyridin-2-yl)acetamide] | 7.00 to 8.00 | ≥ 8.00 |  |  |  |
| CC(=O)Nc1cc(Nc2cc(C)nc(C(C)(F)F)n2)c(OCc2conc2C)cn1 [Example 335, N-(4-((2-(1,1-difluoroethyl)-6-methylpyrimidin-4-yl)amino)-5-((3-methylisoxazol-4-yl)methoxy)pyridin-2-yl)acetamide] | 6.00 to 7.00 |  |  |  | ≥ 8.00 |
| CC(=O)Nc1cc(Nc2ccnc(C(C)(F)F)n2)c(-c2coc(C)n2)cn1 [Example 581, N-(4-((2-(1,1-difluoroethyl)pyrimidin-4-yl)amino)-5-(2-methyloxazol-4-yl)pyridin-2-yl)acetamide] | 7.00 to 8.00 | ≥ 8.00 |  |  |  |
| CCn1ccc(-c2cnc(NC(C)=O)cc2Nc2cc(C)nc(C(C)(F)F)n2)n1 [Example 613, N-(4-((2-(1,1-difluoroethyl)-6-methylpyrimidin-4-yl)amino)-5-(1-ethyl-1H-pyrazol-3-yl)pyridin-2-yl)acetamide] | ≥ 8.00 | ≥ 8.00 |  |  |  |
| CC(=O)Nc1cc(Nc2cc(C)nc(C(C)(F)F)n2)c(OC2CCN(C)C2)cn1 (stereo not drawn) [Example 478, N-(4-((2-(1,1-difluoroethyl)-6-methylpyrimidin-4-yl)amino)-5-((1-methylpyrrolidin-3-yl)oxy)pyridin-2-yl)acetamide] | 6.00 to 7.00 | ≥ 8.00 |  |  |  |
| CC(=O)Nc1cc(Nc2ccnc(C(C)(F)F)n2)c(-c2ccc(CN3CCOC[C@H]3C)cn2)cn1 [Example 880, (R)-N-(4′-((2-(1,1-difluoroethyl)pyrimidin-4-yl)amino)-5-((3-methylmorpholino)methyl)-[2,3′-bipyridin]-6′-yl)acetamide] |  |  | ≥ 8.00 | ≥ 8.00 |  |
| CCC(F)(F)c1cnc(NC(C)=O)cc1Nc1cc(C)nc(C(C)(F)F)n1 [Example 154, N-(4-((2-(1,1-difluoroethyl)-6-methylpyrimidin-4-yl)amino)-5-(1,1-difluoropropyl)pyridin-2-yl)acetamide] | ≤ 6.00 |  |  |  | 7.00 to 8.00 |
| CC(=O)Nc1cc(Nc2cc(C)nc(C(C)(F)F)n2)c(-n2cc3c(n2)CCN(C)C3)cn1 [Example 277, N-(4-((2-(1,1-difluoroethyl)-6-methylpyrimidin-4-yl)amino)-5-(5-methyl-4,5,6,7-tetrahydro-2H-pyrazolo[4,3-c]pyridin-2-yl)pyridin-2-yl)acetamide] | ≥ 8.00 |  |  |  | ≥ 8.00 |
| CC(=O)Nc1cc(Nc2cc(C)nc(C(C)(F)F)n2)c(-c2ccn(C(C)C)n2)cn1 [Example 603, N-(4-((2-(1,1-difluoroethyl)-6-methylpyrimidin-4-yl)amino)-5-(1-isopropyl-1H-pyrazol-3-yl)pyridin-2-yl)acetamide] | ≥ 8.00 | ≥ 8.00 |  |  |  |
| CC(=O)Nc1cc(Nc2cccc(C(C)(C)F)n2)c(-c2ncc(F)cn2)cn1 [Example 215, N-(4-((6-(2-fluoropropan-2-yl)pyridin-2-yl)amino)-5-(5-fluoropyrimidin-2-yl)pyridin-2-yl)acetamide] | 7.00 to 8.00 |  |  |  | ≥ 8.00 |
| CCc1cc(Nc2cc(NC(C)=O)ncc2OCCF)nc(C(C)(F)F)n1 [Example 407, N-(4-((2-(1,1-difluoroethyl)-6-ethylpyrimidin-4-yl)amino)-5-(2-fluoroethoxy)pyridin-2-yl)acetamide] | ≥ 8.00 | ≥ 8.00 |  |  |  |
| COCCn1cc(-c2cc(Nc3cc(NC(C)=O)ncc3OC)nc(C(C)(F)F)n2)cn1 [Example 386, N-(4-((2-(1,1-difluoroethyl)-6-(1-(2-methoxyethyl)-1H-pyrazol-4-yl)pyrimidin-4-yl)amino)-5-methoxypyridin-2-yl)acetamide] | 7.00 to 8.00 | ≥ 8.00 |  |  |  |
| CC(=O)Nc1cc(Nc2cc(C)nc(C(C)(F)F)n2)c(-c2nnc(N(C)C)s2)cn1 [Example 236, N-(4-((2-(1,1-difluoroethyl)-6-methylpyrimidin-4-yl)amino)-5-(5-(dimethylamino)-1,3,4-thiadiazol-2-yl)pyridin-2-yl)acetamide] | ≥ 8.00 |  |  |  | ≥ 8.00 |
| CCn1ncc(-c2cnc(NC(C)=O)cc2Nc2ccnc(C(C)(F)F)n2)n1 [Example 709, N-(4-((2-(1,1-difluoroethyl)pyrimidin-4-yl)amino)-5-(2-ethyl-2H-1,2,3-triazol-4-yl)pyridin-2-yl)acetamide] | 7.00 to 8.00 | ≥ 8.00 |  |  |  |
| CC(=O)Nc1cc(Nc2cc(C)nc(C(C)(F)F)n2)c(-c2cn3c(n2)CCC3)cn1 [Example 769, N-(4-((2-(1,1-difluoroethyl)-6-methylpyrimidin-4-yl)amino)-5-(6,7-dihydrO5H-pyrrolo[1,2-a]imidazol-2-yl)pyridin-2-yl)acetamide] |  |  | ≥ 8.00 | ≥ 8.00 |  |
| COC(C)(C)COc1cnc(NC(C)=O)cc1Nc1cc(C)nc(C(C)(F)F)n1 [Example 492, N-(4-((2-(1,1-difluoroethyl)-6-methylpyrimidin-4-yl)amino)-5-(2-methoxy-2-methylpropoxy)pyridin-2-yl)acetamide] | 7.00 to 8.00 | ≥ 8.00 |  |  |  |
| CC(=O)Nc1cc(Nc2ccnc(C(C)(F)F)n2)c(-c2ncc(Cl)cn2)cn1 [Example 697, N-(5-(5-chloropyrimidin-2-yl)-4-((2-(1,1-difluoroethyl)pyrimidin-4-yl)amino)pyridin-2-yl)acetamide] | 7.00 to 8.00 | ≥ 8.00 |  |  |  |
| CC(=O)Nc1cc(Nc2ccnc(C(C)(F)F)n2)c(-c2cc3n(n2)CCN(CC#N)C3)cn1 [Example 736, N-(5-(5-(cyanomethyl)-4,5,6,7-tetrahydropyrazolo[1,5-a]pyrazin-2-yl)-4-((2-(1,1-difluoroethyl)pyrimidin-4-yl)amino)pyridin-2-yl)acetamide] | ≥ 8.00 | ≥ 8.00 |  |  |  |
| COCCN(C)c1cncc(-c2cnc(NC(C)=O)cc2Nc2ccnc(C(C)(F)F)n2)n1 [Example 275, N-(4-((2-(1,1-difluoroethyl)pyrimidin-4-yl)amino)-5-(6-((2-methoxyethyl)(methyl)amino)pyrazin-2-yl)pyridin-2-yl)acetamide] | 6.00 to 7.00 |  |  |  | ≥ 8.00 |
| COCCn1nccc1-c1cnc(NC(C)=O)cc1Nc1cc(C)nc(C(C)(F)F)n1 [Example 258, N-(4-((2-(1,1-difluoroethyl)-6-methylpyrimidin-4-yl)amino)-5-(1-(2-methoxyethyl)-1H-pyrazol-5-yl)pyridin-2-yl)acetamide] | 6.00 to 7.00 |  |  |  | 6.00 to 7.00 |
| CC(=O)Nc1cc(Nc2cc(C)nc(C(C)(F)F)n2)c(OCC2CCC(=O)O2)cn1 (stereo not drawn) [Example 499, N-(4-((2-(1,1-difluoroethyl)-6-methylpyrimidin-4-yl)amino)-5-((5-oxotetrahydrofuran-2-yl)methoxy)pyridin-2-yl)acetamide] | 7.00 to 8.00 | ≥ 8.00 |  |  |  |
| CCOc1cnc(NC(C)=O)cc1Nc1cc(-c2cnn(CC(C)C)c2)nc(C(C)(F)F)n1 [Example 371, N-(4-((2-(1,1-difluoroethyl)-6-(1-isobutyl-1H-pyrazol-4-yl)pyrimidin-4-yl)amino)-5-ethoxypyridin-2-yl)acetamide] | ≥ 8.00 | ≥ 8.00 |  |  |  |
| CC(=O)Nc1cc(Nc2cc(C)nc(C(C)(F)F)n2)c(-c2cnc(C)o2)cn1 [Example 600, N-(4-((2-(1,1-difluoroethyl)-6-methylpyrimidin-4-yl)amino)-5-(2-methyloxazol-5-yl)pyridin-2-yl)acetamide] | 6.00 to 7.00 | 7.00 to 8.00 |  |  |  |
| COc1cc(-c2cnc(NC(C)=O)cc2Nc2cccc(C(C)(F)F)n2)ncn1 [Example 162, N-(4-((6-(1,1-difluoroethyl)pyridin-2-yl)amino)-5-(6-methoxypyrimidin-4-yl)pyridin-2-yl)acetamide] | ≥ 8.00 |  |  |  | ≥ 8.00 |
| CC(=O)Nc1cc(Nc2cc(C)nc(C(C)(F)F)n2)c(OC[C@@H]2CCCO2)cn1 (single isomer, unassigned) [Example 293, (S)-N-(4-((2-(1,1-difluoroethyl)-6-methylpyrimidin-4-yl)amino)-5-((tetrahydrofuran-2-yl)methoxy)pyridin-2-yl)acetamide or (R)-N-(4-((2-(1,1-difluoroethyl)-6-methylpyrimidin-4-yl)amino)-5-((tetrahydrofuran-2-yl)methoxy)pyridin-2-yl)acetamide] | 7.00 to 8.00 |  |  |  | ≥ 8.00 |
